The target in assay [1] is T1, hDAT (Homo sapiens, UniProt Q01959). The assay is described as follows: Inhibition of [^125I]RTI-55 binding to hDAT. Conditions: read-out: Inhibition of [^125I]RTI-55 binding Ki, hDAT; mean ± sem; HEK-hDAT.
Assay [2] concerns the target T2, 5-HT2A receptor (Homo sapiens, UniProt P28223). The assay is described as follows: cell-based. The assay is classed as cell-based.
Assay [3] deals with T3, hSERT (Homo sapiens, UniProt P31645). Put plainly: Inhibition of [^125I]RTI-55 binding to hSERT.
Assay [4] has as its target 5-HT2B receptor (Homo sapiens, UniProt P41595). The assay is described as follows: 5-HT2B receptor inositol monophosphate. The assay is classed as cell-based. Conditions: for % maximum stimulation, 5-HT2B stimulation of IP-1 formation: normalized to the maximal stimulation by 5-HT.
Assay [5] concerns the target T4, hNET (Homo sapiens, UniProt P23975). Put plainly: biochemical. The assay is classed as binding.
In assay [6] the target is T5, 5-HT2C receptor (Homo sapiens, UniProt P28335).
T5 sequence (P28335 33-458): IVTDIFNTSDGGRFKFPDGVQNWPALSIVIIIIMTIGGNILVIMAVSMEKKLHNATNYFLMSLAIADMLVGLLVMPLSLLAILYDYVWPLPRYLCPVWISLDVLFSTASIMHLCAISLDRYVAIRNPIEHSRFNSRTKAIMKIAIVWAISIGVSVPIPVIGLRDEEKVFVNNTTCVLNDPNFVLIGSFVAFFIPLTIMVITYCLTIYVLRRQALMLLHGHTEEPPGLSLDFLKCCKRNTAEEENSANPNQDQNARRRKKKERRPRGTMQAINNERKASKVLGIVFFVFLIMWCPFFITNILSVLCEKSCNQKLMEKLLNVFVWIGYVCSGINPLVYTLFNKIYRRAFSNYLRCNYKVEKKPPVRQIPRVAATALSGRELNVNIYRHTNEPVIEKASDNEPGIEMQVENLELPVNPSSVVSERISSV
Put plainly: cell-based.

The target of assay [7] is T6, human 5-HT1A receptor (Homo sapiens, UniProt P08908).
T6 sequence (P08908 1-422): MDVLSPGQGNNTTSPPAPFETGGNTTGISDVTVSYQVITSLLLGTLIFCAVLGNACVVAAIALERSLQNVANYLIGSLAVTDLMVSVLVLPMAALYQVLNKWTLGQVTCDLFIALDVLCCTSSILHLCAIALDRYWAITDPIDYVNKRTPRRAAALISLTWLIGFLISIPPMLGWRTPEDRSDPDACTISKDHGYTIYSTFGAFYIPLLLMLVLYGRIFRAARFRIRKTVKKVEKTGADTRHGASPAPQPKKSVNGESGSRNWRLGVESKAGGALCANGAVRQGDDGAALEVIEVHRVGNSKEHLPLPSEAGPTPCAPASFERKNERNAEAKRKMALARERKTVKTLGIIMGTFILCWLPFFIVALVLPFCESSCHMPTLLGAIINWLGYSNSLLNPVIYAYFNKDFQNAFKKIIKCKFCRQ
The assay is described as follows: 5-HT1A receptor [^3H]8-OH-DPAT radioligand binding. Conditions: read-out: Inhibition of radioligand binding Ki, 5-HT1A [^3H]8OH-DPAT; mean ± sem; recombinant human 5-HT1A in HEK cells; agonist radioligand.

Assay [8] concerns the target T3, hSERT. The assay is described as follows: Release of preloaded [^3H]5-HT from HEK-hSERT cells. The assay is classed as cell-based. As to conditions: for EC50: read-out: Drug-induced release of [^3H]neurotransmitter EC50, hSERT [^3H]5-HT, mean ± sem, HEK-hSERT; for % maximum release, hSERT [^3H]5-HT: relative to maximum release induced by METH (0.3–1 mM).
Assay [9] deals with T6, human 5-HT1A receptor. Put plainly: 5-HT1A receptor [^35S]GTPγS binding stimulation. The assay is classed as biochemical.
Assay [10] concerns the target T1, hDAT. Put plainly: Release of preloaded [^3H]DA from HEK-hDAT cells. The assay is classed as cell-based. Conditions: for EC50: read-out: Drug-induced release of [^3H]neurotransmitter EC50, hDAT [^3H]DA, mean ± sem, HEK-hDAT; for % maximum release, hDAT [^3H]DA: relative to maximum release induced by METH (1–10 μM).
Assay [11] deals with T2, 5-HT2A receptor. The assay is described as follows: biochemical. The assay is classed as binding. Conditions: ratio of Ki values.
In assay [12] the target is T4, hNET. Put plainly: Release of preloaded [^3H]NE from HEK-hNET cells. The assay is classed as cell-based. Conditions: for EC50: read-out: Drug-induced release of [^3H]neurotransmitter EC50, hNET [^3H]NE, mean ± sem, HEK-hNET; for % maximum release, hNET [^3H]NE: relative to maximum release induced by METH (0.3–1 μM).
Assay [13] concerns the target T3, hSERT. Put plainly: Inhibition of [^3H]5-HT uptake by HEK-hSERT cells. The assay is classed as cell-based.
Assay [14] has as its target T4, hNET. The assay is described as follows: cell-based.
Setting [15] is: normalized to the maximal stimulation by 5-HT.
Where [16] appears, read: read-out: Inhibition of [^125I]RTI-55 binding Ki, hSERT, mean ± sem, HEK-hSERT.
Where [17] appears, read: read-out: Inhibition of [^125I]RTI-55 binding Ki, hNET, mean ± sem, HEK-hNET.

Where two headings read alike, the source gives them in different places.

Chain of 5-HT2B receptor (P41595 whole entry): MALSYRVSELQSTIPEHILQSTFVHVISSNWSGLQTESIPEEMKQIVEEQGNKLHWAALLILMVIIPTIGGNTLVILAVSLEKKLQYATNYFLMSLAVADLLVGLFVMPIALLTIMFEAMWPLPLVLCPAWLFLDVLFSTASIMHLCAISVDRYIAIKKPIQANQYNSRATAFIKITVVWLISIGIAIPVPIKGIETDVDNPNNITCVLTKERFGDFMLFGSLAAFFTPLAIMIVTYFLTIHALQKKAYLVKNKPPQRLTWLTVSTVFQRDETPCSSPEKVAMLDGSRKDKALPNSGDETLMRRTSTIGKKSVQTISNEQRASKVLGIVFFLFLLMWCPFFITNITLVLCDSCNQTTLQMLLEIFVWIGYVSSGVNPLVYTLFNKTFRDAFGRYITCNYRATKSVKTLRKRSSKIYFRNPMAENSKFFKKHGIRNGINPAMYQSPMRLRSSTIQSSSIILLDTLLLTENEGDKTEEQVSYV
T1 sequence (Q01959 whole entry): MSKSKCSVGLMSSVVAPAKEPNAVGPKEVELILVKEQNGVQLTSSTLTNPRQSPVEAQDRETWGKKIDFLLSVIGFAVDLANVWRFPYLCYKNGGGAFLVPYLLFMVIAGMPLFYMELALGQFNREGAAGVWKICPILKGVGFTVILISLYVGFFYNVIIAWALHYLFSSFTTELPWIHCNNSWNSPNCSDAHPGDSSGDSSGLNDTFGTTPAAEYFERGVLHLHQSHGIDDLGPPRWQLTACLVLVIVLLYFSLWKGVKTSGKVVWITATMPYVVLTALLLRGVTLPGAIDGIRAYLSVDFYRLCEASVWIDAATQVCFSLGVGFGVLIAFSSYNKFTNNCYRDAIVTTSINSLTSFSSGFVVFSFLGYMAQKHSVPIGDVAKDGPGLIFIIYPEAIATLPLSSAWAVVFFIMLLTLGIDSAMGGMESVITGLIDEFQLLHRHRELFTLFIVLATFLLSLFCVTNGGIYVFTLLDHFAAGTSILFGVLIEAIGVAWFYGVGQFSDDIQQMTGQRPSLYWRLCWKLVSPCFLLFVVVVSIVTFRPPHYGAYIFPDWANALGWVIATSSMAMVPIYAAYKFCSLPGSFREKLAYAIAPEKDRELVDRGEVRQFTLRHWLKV
T3 sequence (P31645 whole entry): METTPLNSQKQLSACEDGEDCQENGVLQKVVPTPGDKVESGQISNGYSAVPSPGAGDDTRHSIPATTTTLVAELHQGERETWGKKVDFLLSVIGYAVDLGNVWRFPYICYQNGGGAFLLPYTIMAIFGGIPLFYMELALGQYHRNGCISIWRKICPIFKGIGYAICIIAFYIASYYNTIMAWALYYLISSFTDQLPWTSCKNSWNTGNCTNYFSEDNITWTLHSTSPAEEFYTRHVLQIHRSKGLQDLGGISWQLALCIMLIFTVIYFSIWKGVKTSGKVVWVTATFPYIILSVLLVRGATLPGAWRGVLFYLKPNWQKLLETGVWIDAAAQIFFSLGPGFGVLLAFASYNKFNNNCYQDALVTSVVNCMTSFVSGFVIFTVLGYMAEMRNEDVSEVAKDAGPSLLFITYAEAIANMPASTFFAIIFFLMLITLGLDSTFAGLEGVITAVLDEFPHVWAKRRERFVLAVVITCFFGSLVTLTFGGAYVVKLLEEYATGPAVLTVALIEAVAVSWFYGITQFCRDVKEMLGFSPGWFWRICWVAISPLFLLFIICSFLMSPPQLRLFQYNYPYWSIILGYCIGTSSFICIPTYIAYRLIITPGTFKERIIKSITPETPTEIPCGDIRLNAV
T4 sequence (P23975 whole entry): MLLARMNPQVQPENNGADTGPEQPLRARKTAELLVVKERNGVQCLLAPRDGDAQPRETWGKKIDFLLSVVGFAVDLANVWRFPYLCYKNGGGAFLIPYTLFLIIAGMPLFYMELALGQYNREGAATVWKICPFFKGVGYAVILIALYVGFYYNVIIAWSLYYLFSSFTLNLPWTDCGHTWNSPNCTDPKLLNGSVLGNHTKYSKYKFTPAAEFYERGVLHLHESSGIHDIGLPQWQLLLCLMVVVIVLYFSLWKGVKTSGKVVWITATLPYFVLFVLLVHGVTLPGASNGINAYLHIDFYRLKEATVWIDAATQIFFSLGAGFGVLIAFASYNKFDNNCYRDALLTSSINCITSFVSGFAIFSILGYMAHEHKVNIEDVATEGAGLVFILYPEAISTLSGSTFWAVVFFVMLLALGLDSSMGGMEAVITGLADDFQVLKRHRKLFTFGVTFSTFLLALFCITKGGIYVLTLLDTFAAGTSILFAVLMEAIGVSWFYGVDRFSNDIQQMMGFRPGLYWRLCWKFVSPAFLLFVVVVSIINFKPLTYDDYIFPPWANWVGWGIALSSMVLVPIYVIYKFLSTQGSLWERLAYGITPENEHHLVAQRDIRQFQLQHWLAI
T2 sequence (P28223 whole entry): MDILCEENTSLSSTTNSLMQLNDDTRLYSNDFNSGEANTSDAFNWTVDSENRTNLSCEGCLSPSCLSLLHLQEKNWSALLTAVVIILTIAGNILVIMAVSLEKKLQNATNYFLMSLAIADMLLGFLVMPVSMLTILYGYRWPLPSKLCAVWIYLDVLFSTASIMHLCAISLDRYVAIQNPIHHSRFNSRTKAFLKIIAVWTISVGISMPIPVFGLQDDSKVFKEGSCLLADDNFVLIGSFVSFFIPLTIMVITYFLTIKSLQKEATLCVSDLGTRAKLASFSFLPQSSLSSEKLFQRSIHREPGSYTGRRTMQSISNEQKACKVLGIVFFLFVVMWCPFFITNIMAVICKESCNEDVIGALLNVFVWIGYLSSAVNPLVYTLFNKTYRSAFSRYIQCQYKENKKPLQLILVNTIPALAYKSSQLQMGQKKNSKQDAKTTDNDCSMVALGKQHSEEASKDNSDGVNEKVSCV

On to `COc1cc([N+](=O)[O-])c(OC)cc1CCNCc1ccccc1OC` [25N-NBOMe], for which the inhibitory constant (Ki) (as a rule, the equilibrium dissociation constant of an inhibitor or competing ligand from its target) in [1] was found to be 37.9 ± 4.6 µM; in assay [3] (setting [16]), 5.81 ± 0.9 µM; in assay [5] (setting [17]) it was 11.3 ± 3.5 µM; in [7], 2.26 ± 0.23 µM. Further, the “% maximum stimulation, 5-HT2A stimulation of IP-1 formation” value in assay [2] (setting [15]) worked out at 87.9 ± 3.4%. Also, in [2] (ratio of EC50 values), the “Selectivity (functional ratios) 5-HT2A: 5-HT1A” value is listed as 9400. Also, in assay [2] (ratio of EC50 values), the “Selectivity (functional ratios) 5-HT2A: 5-HT2B” value came out at 92. Besides, the “Selectivity (functional ratios) 5-HT2A: 5-HT2C” value in assay [2] (ratio of EC50 values) is on record as 2.6. Further, the EC50 – broadly, the midpoint of the concentration-response curve – in assay [2] (read-out: EC50, 5-HT2A stimulation of IP-1 formation, mean ± sem) is 0.00051 ± 0.00019 µM; in assay [4] (read-out: EC50, 5-HT2B stimulation of IP-1 formation, mean ± sem), 0.047 ± 0.011 µM; in [6] (read-out: EC50, 5-HT2C stimulation of IP-1 formation, mean ± sem), 0.00132 ± 0.00027 µM; in assay [8], greater than 100 µM; in [9] (read-out: EC50, 5-HT1A stimulation of [^35S]GTPγS binding, mean ± sem) it was 4.8 ± 1.8 µM; in [10], greater than 100 µM. The concentration for a half-maximal effect (EC50) in [12] was greater than 38 µM. The “% maximum stimulation, 5-HT2B stimulation of IP-1 formation” value in assay [4] was 57.6 ± 8.6%. Moreover, in assay [6] (setting [15]), the “% maximum stimulation, 5-HT2C stimulation of IP-1 formation” value worked out at 99.4 ± 0.4%. Moreover, in assay [8], the “% maximum release, hSERT [^3H]5-HT” value was −0.25 ± 0.54%. Besides, the “% maximum stimulation, 5-HT1A stimulation of [^35S]GTPγS binding” value in assay [9] (setting [15]) stood at 35.6 ± 6.6%. For the same compound, in assay [10], the “% maximum release, hDAT [^3H]DA” value is listed as −0.89 ± 0.91%. For the same compound, in assay [11], the “Selectivity (binding ratios) 5-HT2A : 5-HT1A” value is 15700. Also, in assay [11], the “Selectivity (binding ratios) 5-HT2A : 5-HT2B” value was 60. In assay [11], the “Selectivity (binding ratios) 5-HT2A : 5-HT2C” value is recorded as 7.4. In [12], the “% maximum release, hNET [^3H]NE” value turned out to be 25 ± 15%.

Take `CCN(CC)C(=O)[C@@H]1C=C2c3cccc4[nH]cc(c34)C[C@H]2N(C)C1` [LSD, (+)lysergic acid diethylamide, reference compound]: the results for the inhibition constant (Ki) in assay [1], in assay [3] (setting [16]) and in assay [5] (setting [17]) were greater than 100 µM, 62.9 ± 5 µM and 76.9 ± 8.5 µM, respectively. For the same compound, in assay [2], the “% maximum stimulation, 5-HT2A stimulation of IP-1 formation” value is 0.706 ± 0.065 (3) 64.5 ± 6.3%. In addition, the “% maximum stimulation, 5-HT2B stimulation of IP-1 formation” value in assay [4] is 23.3 ± 4.9%. Moreover, the half-maximal effective concentration (EC50) is greater than 100 µM in assay [8], greater than 54 µM in assay [10] and greater than 91 µM in assay [12]. The “% maximum release, hSERT [^3H]5-HT” value in assay [8] was −0.59 ± 0.55%. Besides, in [10], the “% maximum release, hDAT [^3H]DA” value was found to be 7.4 ± 4.7%. Further, in assay [12], the “% maximum release, hNET [^3H]NE” value came out at 35.7 ± 4.2%.

Turning to `CN[C@@H](C)Cc1ccccc1` [METH, (S+)methamphetamine, reference compound], in assay [8], the EC50 was determined as 27.5 ± 7 µM and the “% maximum release, hSERT [^3H]5-HT” value was 104.9 ± 6.8%. In assay [10], the EC50 was 0.43 ± 0.15 µM and the “% maximum release, hDAT [^3H]DA” value amounted to 104.1 ± 1.3%. In [12], the concentration giving a half-maximal response (EC50) is 0.152 ± 0.056 µM and the “% maximum release, hNET [^3H]NE” value was found to be 106.7 ± 3.3%.

As to `OC1(c2ccc(Cl)cc2)c2ccccc2C2=NCCN21` (stereo not drawn) [Mazindol, reference compound], the Ki in assay [3] was 0.127 ± 0.039 µM; in assay [5] it was 0.0116 ± 0.0035 µM. The concentration for half-maximal inhibition (IC50) (as a rule, the concentration at which inhibition is half-maximal) in assay [13] came out at 0.069 ± 0.012 µM; in assay [14], 0.0011 ± 0.0003 µM.
